In brackets after ≈: the same amount, converted by molar mass.
Tested on: Plasmodium vivax
Assay: Inhibition of Plasmodium vivax DHODH-mediated 2,6-dichloroindophenol reduction after 20 mins by spectrophotometry
Conditions: not given
Work on `C[C@@H]1CN([C@@H](C)CN(C)C)C(=O)c2cc(NC(=O)Nc3ccccc3)ccc2O[C@@H](C)CCCCO[C@H]1CN(C)S(=O)(=O)c1ccc(F)cc1` yielded an INH greater than 30 µM.

Tested on: Plasmodium berghei
Assay: Inhibition of Plasmodium berghei DHODH-mediated 2,6-dichloroindophenol reduction after 20 mins by spectrophotometry
Conditions: not given
For `C[C@@H]1CN([C@@H](C)CN(C)C)C(=O)c2cc(NC(=O)Nc3ccccc3)ccc2O[C@@H](C)CCCCO[C@H]1CN(C)S(=O)(=O)c1ccc(F)cc1`, the INH was greater than 30 µM.

Biological target: T1, Dihydroorotate dehydrogenase (Plasmodium falciparum) (UniProt Q54A96)
T1 sequence (whole entry): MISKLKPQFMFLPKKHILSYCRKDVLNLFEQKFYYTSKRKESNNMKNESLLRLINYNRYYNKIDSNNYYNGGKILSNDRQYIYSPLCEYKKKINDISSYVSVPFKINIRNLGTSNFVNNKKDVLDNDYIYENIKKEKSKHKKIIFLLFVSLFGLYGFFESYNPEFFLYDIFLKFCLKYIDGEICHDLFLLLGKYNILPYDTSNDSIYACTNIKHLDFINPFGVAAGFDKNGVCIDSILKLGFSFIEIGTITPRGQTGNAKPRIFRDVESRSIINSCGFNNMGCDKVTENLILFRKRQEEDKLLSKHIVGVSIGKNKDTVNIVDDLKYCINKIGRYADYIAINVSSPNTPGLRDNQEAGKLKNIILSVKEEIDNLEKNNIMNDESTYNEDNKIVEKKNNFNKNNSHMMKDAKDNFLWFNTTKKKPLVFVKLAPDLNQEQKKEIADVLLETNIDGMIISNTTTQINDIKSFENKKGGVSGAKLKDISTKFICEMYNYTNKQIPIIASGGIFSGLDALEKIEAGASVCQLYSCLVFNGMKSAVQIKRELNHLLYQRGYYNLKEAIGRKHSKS
Assay: Inhibition of Plasmodium falciparum DHODH-mediated 2,6-dichloroindophenol reduction after 20 mins by spectrophotometry
Conditions: not given
With `C[C@@H]1CN([C@@H](C)CN(C)C)C(=O)c2cc(NC(=O)Nc3ccccc3)ccc2O[C@@H](C)CCCCO[C@H]1CN(C)S(=O)(=O)c1ccc(F)cc1` the INH was greater than 30 µM.

Biological target: Dihydroorotate dehydrogenase (quinone), mitochondrial (Homo sapiens) (UniProt Q02127)
Sequence (Q02127 whole entry): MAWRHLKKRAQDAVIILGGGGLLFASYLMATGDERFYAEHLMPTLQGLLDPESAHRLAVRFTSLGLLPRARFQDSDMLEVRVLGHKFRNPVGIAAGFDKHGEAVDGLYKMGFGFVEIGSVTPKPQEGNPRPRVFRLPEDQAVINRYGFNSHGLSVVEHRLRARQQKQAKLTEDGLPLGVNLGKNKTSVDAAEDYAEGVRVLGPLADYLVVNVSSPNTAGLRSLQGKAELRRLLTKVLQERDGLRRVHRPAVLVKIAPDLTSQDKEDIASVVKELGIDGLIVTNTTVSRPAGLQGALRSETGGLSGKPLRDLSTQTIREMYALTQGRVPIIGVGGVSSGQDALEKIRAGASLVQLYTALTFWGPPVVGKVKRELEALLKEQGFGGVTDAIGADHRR
Assay: Inhibition of human DHODH-mediated 2,6-dichloroindophenol reduction after 20 mins by spectrophotometry
Conditions: not given
`C[C@@H]1CN([C@@H](C)CN(C)C)C(=O)c2cc(NC(=O)Nc3ccccc3)ccc2O[C@@H](C)CCCCO[C@H]1CN(C)S(=O)(=O)c1ccc(F)cc1` gave an INH greater than 30 µM.

Tested on: Plasmodium falciparum
Assay: Antimalarial activity against asexual blood stage form of Plasmodium falciparum Dd2 infected in human erythrocytes after 72 hrs by DAPI staining
Assay type: functional
Conditions: Dd2, 72 h
`C[C@@H]1CN([C@@H](C)CO)C(=O)c2cc(N)ccc2O[C@@H](C)CCCCO[C@H]1CN(C)S(=O)(=O)c1ccc(F)cc1` gave a GI50 of 990 nM. With `COCOC[C@H](C)N1C[C@@H](C)[C@H](CN(C)S(=O)(=O)c2ccc(F)cc2)OCCCC[C@H](C)Oc2ccc(NC(=O)Nc3ccccc3)cc2C1=O` the GI50 was 8.2 nM. For `Cc1noc(C)c1NC(=O)Nc1ccc2c(c1)C(=O)N([C@@H](C)CO)C[C@@H](C)[C@H](CN(C)S(=O)(=O)c1ccc(F)cc1)OCCCC[C@H](C)O2`, the GI50 was 240 nM. For `C[C@@H]1CN([C@@H](C)CO)C(=O)c2cc(NC(=O)Nc3ccccc3)ccc2O[C@@H](C)CCCCO[C@H]1CN(C)C(=O)c1ccccc1`, the GI50 was 2600 nM. With `COCCOC(=O)N(C)C[C@@H]1OCCCC[C@H](C)Oc2ccc(NC(=O)Nc3ccccc3)cc2C(=O)N([C@@H](C)CO)C[C@H]1C` the GI50 was greater than 5000 nM. `C[C@@H]1CN([C@@H](C)CO)C(=O)c2cc(NC(=O)Nc3ccccc3)ccc2O[C@@H](C)CCCCO[C@H]1CN(C)S(=O)(=O)c1ccccc1F` gave a GI50 of 1100 nM. `COc1ccc(COCCN2C[C@@H](C)[C@H](CN(C)S(=O)(=O)c3ccc(F)cc3)OCCCC[C@H](C)Oc3ccc(NC(=O)Nc4ccccc4)cc3C2=O)cc1` showed a GI50 of 55 nM. In the case of `COc1ccc(COC[C@@H](C)N2C[C@@H](C)[C@H](CN(C)S(=O)(=O)c3ccc(F)cc3)OCCCC[C@H](C)Oc3ccc(NC(=O)Nc4ccccc4)cc3C2=O)cc1`, the GI50 is reported as 36 nM. `C[C@@H]1CN([C@@H](C)CO)C(=O)c2cc(NS(=O)(=O)c3ccccc3)ccc2O[C@@H](C)CCCCO[C@H]1CN(C)S(=O)(=O)c1ccc(F)cc1` gave a GI50 of 2400 nM. `C[C@@H]1CN([C@@H](C)CN=[N+]=[N-])C(=O)c2cc(NC(=O)Nc3ccccc3)ccc2O[C@@H](C)CCCCO[C@H]1CN(C)S(=O)(=O)c1ccc(F)cc1` gave a GI50 of 3.2 nM. Compound `C[C@@H]1CN([C@@H](C)CO)C(=O)c2cc(NC(=O)Nc3ccccc3)ccc2O[C@@H](C)CCCCO[C@H]1CN(C)C(=O)OC(C)(C)C` has a GI50 of 1400 nM. `C[C@@H]1CN([C@@H](C)COC(=O)C(C)(C)C)C(=O)c2cc(NC(=O)Nc3ccccc3)ccc2O[C@@H](C)CCCCO[C@H]1CN(C)S(=O)(=O)c1ccc(F)cc1` showed a GI50 of 7.3 nM. For `C[C@@H]1CN([C@@H](C)CO)C(=O)c2cc(Nc3nc4ccccc4o3)ccc2O[C@@H](C)CCCCO[C@H]1CN(C)S(=O)(=O)c1ccc(F)cc1`, the GI50 was 580 nM. `C[C@@H]1CN([C@@H](C)CN)C(=O)c2cc(NC(=O)Nc3ccccc3)ccc2O[C@@H](C)CCCCO[C@H]1CN(C)S(=O)(=O)c1ccc(F)cc1` gave a GI50 of 370 nM. For `CNC[C@H](C)N1C[C@@H](C)[C@H](CN(C)S(=O)(=O)c2ccc(F)cc2)OCCCC[C@H](C)Oc2ccc(NC(=O)Nc3ccccc3)cc2C1=O`, the GI50 was 79 nM. For `C[C@@H]1CN([C@@H](C)CO)C(=O)c2cc(NC(=O)Nc3ccccc3)ccc2O[C@@H](C)CCCCO[C@H]1CN(C)S(=O)(=O)c1cccnc1`, the GI50 was greater than 5000 nM. Compound `COc1ccc(COC[C@H](C)N2C[C@@H](C)[C@H](CN(C)S(=O)(=O)c3ccc(F)cc3)OCCCC[C@H](C)Oc3ccc(NC(=O)Nc4ccccc4)cc3C2=O)cc1` has a GI50 of 0.18 nM. For `C[C@@H]1CN([C@@H](C)CO)C(=O)c2cc(NC(=O)Nc3ccccc3)ccc2O[C@@H](C)CCCCO[C@H]1CN(C)S(=O)(=O)c1ccccc1`, the GI50 was 350 nM. `C[C@@H]1CN([C@@H](C)CO)C(=O)c2cc(NC(=O)Nc3ccccc3)ccc2O[C@@H](C)CCCCO[C@H]1CN(C)Cc1ccccc1` gave a GI50 of 1100 nM. In the case of `C[C@@H]1CN(CCO)C(=O)c2cc(NC(=O)Nc3ccccc3)ccc2O[C@@H](C)CCCCO[C@H]1CN(C)S(=O)(=O)c1ccc(F)cc1`, the GI50 is reported as 640 nM. Work on `C[C@@H]1CN([C@@H](C)CO)C(=O)c2cc(N(C)C)ccc2O[C@@H](C)CCCCO[C@H]1CN(C)S(=O)(=O)c1ccc(F)cc1` yielded a GI50 greater than 5000 nM. Work on `CC(C)NC(=O)Nc1ccc2c(c1)C(=O)N([C@@H](C)CO)C[C@@H](C)[C@H](CN(C)S(=O)(=O)c1ccc(F)cc1)OCCCC[C@H](C)O2` yielded a GI50 of 400 nM. Compound `C[C@@H]1CN([C@@H](C)COC(=O)c2ccccc2)C(=O)c2cc(NC(=O)Nc3ccccc3)ccc2O[C@@H](C)CCCCO[C@H]1CN(C)S(=O)(=O)c1ccc(F)cc1` has a GI50 of 15 nM. For `C[C@@H]1CN([C@@H](C)CO)C(=O)c2cc(NC(=O)Nc3ccccc3)ccc2O[C@@H](C)CCCCO[C@H]1CN(C)C(=O)Oc1ccccc1`, the GI50 was greater than 5000 nM. With `C[C@@H]1CN([C@@H](C)CO)C(=O)c2cc(NC(=O)Nc3ccccc3)ccc2O[C@@H](C)CCCCO[C@H]1CN(C)S(=O)(=O)c1ccc(C(F)(F)F)cc1` the GI50 was 877 nM. `C[C@@H]1CN([C@@H](C)CO)C(=O)c2cc(NC(=O)Nc3ccccc3)ccc2O[C@@H](C)CCCCO[C@H]1CN(C)Cc1ccc(F)cc1` gave a GI50 of 4300 nM. For `COc1ccc(S(=O)(=O)N(C)C[C@@H]2OCCCC[C@H](C)Oc3ccc(NC(=O)Nc4ccccc4)cc3C(=O)N([C@@H](C)CO)C[C@H]2C)cc1`, the GI50 was 160 nM.

Tested on: not listed separately
Assay: Aqueous solubility of the compound
Assay type: physicochemical
Conditions: water
For `C[C@@H]1CN([C@@H](C)COC(=O)C(C)(C)C)C(=O)c2cc(NC(=O)Nc3ccccc3)ccc2O[C@@H](C)CCCCO[C@H]1CN(C)S(=O)(=O)c1ccc(F)cc1`, the solubility was less than 0.5 µM. For `C[C@@H]1CN([C@@H](C)CO)C(=O)c2cc(NC(=O)Nc3ccccc3)ccc2O[C@@H](C)CCCCO[C@H]1CN(C)C(=O)Oc1ccccc1`, the solubility was 1.2 µM (≈ 0.776 µg/mL).

From ChEMBL document CHEMBL2034876, “Diversity-Oriented Synthesis Yields a Novel Lead for the Treatment of Malaria” (ACS Med Chem Lett, 2012)
